Converted amounts (≈) assume the structure as drawn. Like-named read-outs stand apart in the source and are kept apart here.
What was measured:
Type in all cases: cell-based
[1] = test system: Enterococcus faecalis 101 (ATCC 29212); assay: MIC by broth microdilution, EFc 101; settings: class symbols
Outline: (§1)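 CLSI-recommended broth microdilution; medium Mueller-Hinton broth.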

[2] = test system: Staphylococcus epidermidis 831 (MRSE); assay: MIC by broth microdilution, SE 831; settings: read-out: MIC SE 831
Outline: as §1

[3] = test system: Enterococcus faecium 800; assay: MIC by broth microdilution, EFcm 800
Outline: as §1

[4] = test system: Enterococcus faecium 752 (VRE, Van A); assay: MIC by broth microdilution, EFcm 752; settings: class symbols
Outline: as §1

[5] = test system: Staphylococcus aureus 100 (ATCC 29213); assay: MIC by broth microdilution, SA 100
Outline: as §1

[6] = test system: Staphylococcus aureus 2012 (VISA); assay: MIC by broth microdilution, SA 2012; settings: class symbols
Outline: as §1

[7] = test system: Staphylococcus aureus 757 (MRSA); assay: MIC by broth microdilution, SA 757; settings: read-out: MIC SA 757
Outline: as §1

[8] = test system: Streptococcus pneumoniae 1195 (ATCC 49619); assay: MIC by broth microdilution, SPNE 1195
Outline: as §1

[9] = test system: Streptococcus pyogenes 712; assay: MIC by broth microdilution, SPY 712
Outline: as §1

[10] = test system: Enterococcus faecalis 848 (VRE, Van A); assay: MIC by broth microdilution, EFc 848; settings: class symbols
Outline: as §1

[11] = test system: Staphylococcus epidermidis 835; assay: MIC by broth microdilution, SE 835
Outline: as §1

[12] = Enterococcus faecalis, ATCC29212, read-out: MIC E FC 101, Enterococcus faecalis 101 (ATCC 29212)
[13] = Staphylococcus epidermidis, MRSE
[14] = Enterococcus faecium, 800, read-out: MIC E FCM 800
[15] = Enterococcus faecium, VRE, read-out: MIC E FCM 752, Enterococcus faecium 752 (VRE, Van A)
[16] = Staphylococcus aureus, ATCC29213, read-out: MIC SA 100
[17] = Staphylococcus aureus, VISA, read-out: MIC SA 2012, Staphylococcus aureus 2012 (VISA)
[18] = Streptococcus pneumoniae, ATCC49619, read-out: MIC S PNE 1195
[19] = Streptococcus pyogenes, 712, read-out: MIC S PYO 712
[20] = Enterococcus faecalis, VRE, read-out: MIC E FC 848, Enterococcus faecalis 848 (VRE, Van A)
[21] = Staphylococcus epidermidis, 835, read-out: MIC SE 835

Row | Structure (SMILES) | MIC [1, 12] | MIC [2, 13] | MIC [3, 14] | MIC [4, 15] | MIC [5, 16] | MIC [6, 17] | MIC ([7]; Staphylococcus aureus, MRSA) | MIC [8, 18] | MIC [9, 19] | MIC [10, 20] | MIC [11, 21] | further results
1 | CCCCCCOc1ccc(S(=O)(=O)NCCCCCCNC(=O)Oc2cc(O)c3c(c2)[C@@H](C(=O)O)NC(=O)[C@H]2NC(=O)[C@H](NC(=O)[C@@H]4NC(=O)[C@H](CC(N)=O)NC(=O)[C@H](NC(=O)[C@@H](CC(C)C)NC)[C@H](O)c5ccc(c(Cl)c5)Oc5cc4cc(c5O[C@@H]4O[C@H](CO)[C@@H](O)[C@H](O)[C@H]4O[C@H]4C[C@](C)(N)[C@H](O)[C@H](C)O4)Oc4ccc(cc4Cl)[C@H]2O)c2ccc(O)c-3c2)cc1 (atropisomer, axis not shown) [Compound 349] | 0.01 to 0.5 µg/mL (≈ 0.00546 to 0.273 µM) | 0.01 to 0.5 µg/mL (≈ 0.00546 to 0.273 µM) | 0.01 to 0.5 µg/mL (≈ 0.00546 to 0.273 µM) | 0.5 to 1 µg/mL (≈ 0.273 to 0.546 µM) | 0.01 to 0.5 µg/mL (≈ 0.00546 to 0.273 µM) | 0.5 to 1 µg/mL (≈ 0.273 to 0.546 µM) | 0.01 to 0.5 µg/mL (≈ 0.00546 to 0.273 µM) | 0.01 to 0.5 µg/mL (≈ 0.00546 to 0.273 µM) | 0.01 to 0.5 µg/mL (≈ 0.00546 to 0.273 µM) | 4 to 8 µg/mL (≈ 2.18 to 4.37 µM) | 0.01 to 0.5 µg/mL (≈ 0.00546 to 0.273 µM) | 
2 | CCCCCOc1ccc(S(=O)(=O)NCCCCNC(=O)Oc2cc(O)c3c(c2)[C@@H](C(=O)NC2C4CC5CC(C4)CC2C5)NC(=O)[C@H]2NC(=O)[C@H](NC(=O)[C@@H]4NC(=O)[C@H](CC(N)=O)NC(=O)[C@H](NC(=O)[C@@H](CC(C)C)NC)[C@H](O)c5ccc(c(Cl)c5)Oc5cc4cc(c5O[C@@H]4O[C@H](CO)[C@@H](O)[C@H](O)[C@H]4O[C@H]4C[C@](C)(N)[C@H](O)[C@H](C)O4)Oc4ccc(cc4Cl)[C@H]2O)c2ccc(O)c-3c2)cc1 (some centres unmarked) [Compound 334] | 0.01 to 0.5 µg/mL (≈ 0.0052 to 0.26 µM) | 0.01 to 0.5 µg/mL (≈ 0.0052 to 0.26 µM) | 0.01 to 0.5 µg/mL (≈ 0.0052 to 0.26 µM) | 0.5 to 1 µg/mL (≈ 0.26 to 0.52 µM) | 0.01 to 0.5 µg/mL (≈ 0.0052 to 0.26 µM) | 1 to 2 µg/mL (≈ 0.52 to 1.04 µM) | 0.01 to 0.5 µg/mL (≈ 0.0052 to 0.26 µM) | 0.01 to 0.5 µg/mL (≈ 0.0052 to 0.26 µM) | 0.01 to 0.5 µg/mL (≈ 0.0052 to 0.26 µM) | 8 to 16 µg/mL (≈ 4.16 to 8.32 µM) | 0.01 to 0.5 µg/mL (≈ 0.0052 to 0.26 µM) | 
3 | CCCCCCc1ccc(S(=O)(=O)NCCOCCNCc2c(O)cc3c(c2O)-c2cc(ccc2O)[C@H]2NC(=O)[C@@H]4NC(=O)[C@H](CC(N)=O)NC(=O)[C@H](NC(=O)[C@@H](CC(C)C)NC)[C@H](O)c5ccc(c(Cl)c5)Oc5cc4cc(c5O[C@@H]4O[C@H](CO)[C@@H](O)[C@H](O)[C@H]4O[C@H]4C[C@]5(C)NC(=O)O[C@@H]5[C@H](C)O4)Oc4ccc(cc4Cl)[C@@H](O)[C@H](NC2=O)C(=O)N[C@@H]3C(=O)O)cc1 (atropisomer, axis not shown) [Compound 308] |  |  |  |  |  |  |  |  |  |  |  | MIC ([1]; ATCC29212, Enterococcus faecalis 101 (ATCC 29212), read-out: MIC E FC 101): 0.01 to 0.5 µg/mL (≈ 0.00551 to 0.275 µM); MIC ([2]; Staphylococcus epidermidis 831 (MRSE), class symbols): 0.01 to 0.5 µg/mL (≈ 0.00551 to 0.275 µM); MIC ([3]; Enterococcus faecium 800, class symbols, read-out: MIC E FCM 800): 0.01 to 0.5 µg/mL (≈ 0.00551 to 0.275 µM); MIC ([4]; Enterococcus faecium 752 (VRE, Van A), read-out: MIC E FCM 752): 4 to 8 µg/mL (≈ 2.2 to 4.41 µM); MIC ([5]; ATCC29213, Staphylococcus aureus 100 (ATCC 29213), class symbols, read-out: MIC SA 100): 0.01 to 0.5 µg/mL (≈ 0.00551 to 0.275 µM); MIC ([6]; Staphylococcus aureus 2012 (VISA), read-out: MIC SA 2012): 0.5 to 1 µg/mL (≈ 0.275 to 0.551 µM); MIC ([7]; Staphylococcus aureus 757 (MRSA), class symbols): 0.01 to 0.5 µg/mL (≈ 0.00551 to 0.275 µM); MIC ([8]; ATCC49619, Streptococcus pneumoniae 1195 (ATCC 49619), class symbols, read-out: MIC S PNE 1195): 0.01 to 0.5 µg/mL (≈ 0.00551 to 0.275 µM); MIC ([9]; Streptococcus pyogenes 712, class symbols, read-out: MIC S PYO 712): 0.01 to 0.5 µg/mL (≈ 0.00551 to 0.275 µM); MIC ([10]; Enterococcus faecalis 848 (VRE, Van A), read-out: MIC E FC 848): > 16 µg/mL; MIC ([11]; Staphylococcus epidermidis 835, class symbols, read-out: MIC SE 835): 0.01 to 0.5 µg/mL (≈ 0.00551 to 0.275 µM)
4 | CNCCCOc1ccc(NC(=O)Oc2cc(O)c3c(c2)[C@@H](C(=O)NC2C4CC5CC(C4)CC2C5)NC(=O)[C@H]2NC(=O)[C@H](NC(=O)[C@@H]4NC(=O)[C@H](CC(N)=O)NC(=O)[C@H](NC(=O)[C@@H](CC(C)C)NC)[C@H](O)c5ccc(c(Cl)c5)Oc5cc4cc(c5O[C@@H]4O[C@H](CO)[C@@H](O)[C@H](O)[C@H]4O[C@H]4C[C@](C)(N)[C@H](O)[C@H](C)O4)Oc4ccc(cc4Cl)[C@H]2O)c2ccc(O)c-3c2)cc1 (some centres unmarked) [Compound 333] | 4 to 8 µg/mL (≈ 2.24 to 4.47 µM) | 8 to 16 µg/mL (≈ 4.47 to 8.94 µM) | 2 to 4 µg/mL (≈ 1.12 to 2.24 µM) | > 16 µg/mL | 4 to 8 µg/mL (≈ 2.24 to 4.47 µM) | > 16 µg/mL | 4 to 8 µg/mL (≈ 2.24 to 4.47 µM) | 2 to 4 µg/mL (≈ 1.12 to 2.24 µM) | 1 to 2 µg/mL (≈ 0.559 to 1.12 µM) | > 16 µg/mL | 8 to 16 µg/mL (≈ 4.47 to 8.94 µM) | 

Source: US20110015119A1, “NOVEL SEMI-SYNTHETIC GLYCOPEPTIDES AS ANTIBACTERIAL AGENTS” (LEAD THERAPEUTICS, INC., priority 2009, published 2011)
